Source: article PMC6571673, “Cytostatic and Cytotoxic Natural Products against Cancer Cell Models” (Molecules, 2019)

Assays:
UoC-B1 = experiment: CTG viability assay (CellTiter-Glo, 72 h); format: cell-based; settings: Homo sapiens, mean ± SEM of triplicates
Experimental: (§1) All human cell lines were incubated at 37 °C in a 5% CO2 atmosphere and maintained under sterile conditions. Cells were tested for Mycoplasma (Lonza, Alpharetta, GA, USA) using the manufacturer’s conditions prior to experiments. Cell lines were purchased from American Type Culture Collection (ATCC, Manassas, VA, USA) or Leibniz-Institute Deutsche Sammlung von Mikroorganismen und Zellkulturen GmbH (DSMZ, Braunschweig, Germany) and cultured without antibiotics unless stated. Leukemia cells were cultured in RPMI and supplemented with 10% fetal bovine serum (FBS, Hyclone, Logan, UT, USA). SUP-B15, and KOPN-8 lines were cultured in RPMI supplemented with 10% FBS (Hyclone), 1% GlutaMAX™, 1% Pen/Step, and 0.1% β-mercaptoethanol. BJ cells were cultured in EMEM media supplemented with 10% FBS (Hyclone). Breast cancer cells (MDA-MB-231 & SUM149) were cultured in DMEM and Ham’s F12 respectively, supplemented with 10% FBS, 1% GlutaMAX™, 1% Pen/Step, and 2 µM cortisol/1 µg/mL insulin for SUM149. Both cells were grown to 80% confluence densities as recommended by ATCC. PBMCs were supplemented with concanavalin-A (5 μg/mL) and IL-2 (50 U/ml). To test general cytotoxicity, the following cell numbers were used for 384 well plates: KOPN-8 (ACC 552, infant human B cell precursor acute lymphoblastic leukemia with MLL-MLLt1/ENL fusion, 1000 cells/well), SUP-B15 (ACC389, human B cell precursor acute lymphoblastic leukemia of pediatric second relapse carrying the ALL-variant (m-bcr) of BCR-ABL1 fusion gene (e1-a2), 1600 cells/well), NALM-06 (DSMZ ACC128, non-T/non-B ALL at relapse with P15INK4B and P16INK4A deletions, 1200 cells/well), UoC-B1 (pediatric BCP-ALL at second relapse with TCF3/E2A-HFL fusion, 1000 cells/well), BJ (CRL-2522, normal human foreskin fibroblast cells, 400 cells/well) and PBMCs (periphery blood monocyte cells from healthy donors, IBC#BDC046, 10,000 cells/well).
(§2) Cytotoxicity evaluation was performed using the CellTiter-Glo Luminescent Cell Viability Assay kit (G7570, Promega, Madison, WI, USA), according to the manufacturer’s instructions. Briefly, the cell concentrations used were experimentally determined to ensure logarithmic growth during the 72-h duration of the experiment, and avoid adverse effects on cell growth by DMSO exposure. 1 × 10^3–4.8 × 10^3 or 4 × 10^2–1.2 × 10^3 cells/well were seeded in 96 or 384-well white flat-bottomed plates (3610 or 8804BC, Corning, Corning, NY, USA) in 100 µL or 30 µL/well, respectively. The plates were incubated at 37 °C in 5% CO2 for 24 h before drugging. Test compounds (10 mM in DMSO) in nine 3-fold serial dilutions were dispensed via pintool (Biomek liquid handler, Beckman, Indianapolis, USA) to assay plates. The final concentration of DMSO was 0.3% (v/v) in each well. The positive controls included staurosporine (10 μM), and gambogic acid (10 μM). The plates were incubated for 72 h at 37 °C in 5% CO2, then quenched with CellTiter-Glo® (Promega, Madison, WI, USA, 50 µL/96 or 30 µL/384), centrifuged at 1000 rpm for 1 min and incubated at RT for 20 min. Luminescence was recorded with a plate reader (Envision, Perkin Elmer, Waltham, MA, USA). The mean luminescence of each experimental treatment group was normalized as a percentage of the mean intensity of untreated controls. EC50 values were calculated by Pipeline Pilot software (Accelrys, Enterprise Platform, San Diego, CA, USA).

PBMC = experiment: CTG viability assay (CellTiter-Glo, 72 h); format: cell-based; settings: Homo sapiens, non-cancerous cells
Experimental: as §1, §2

KOPN-8 [1] = experiment: CTG viability assay (CellTiter-Glo, 72 h); format: cell-based; settings: Homo sapiens, mean ± SEM of triplicates
Experimental: as §1, §2

NALM-06 = experiment: CTG viability assay (CellTiter-Glo, 72 h); format: cell-based; settings: Homo sapiens, mean ± SEM of triplicates
Experimental: as §1, §2

[2] = system: de novo protein synthesis in MDA-MB-231; experiment: EZClick in-cell-click de novo protein synthesis assay; format: cell-based, human; settings: MDA-MB-231, 2 h exposure time
From the text: Protein synthesis is essential in cell growth, proliferation, signaling, differentiation, and death. […] The assay includes a robust chemical method based on an alkyne containing o-propargyl-puromycin probe, which stops translation by forming covalent conjugates with nascent polypeptide chains. Truncated polypeptides are rapidly turned over by the proteasome and can be detected based on the subsequent click reaction with a fluorescent azide. To test whether these compounds (4–14) induced de novo protein synthesis inhibition, compounds were tested for a 2 h exposure time, under the same conditions as the known protein synthesis inhibitor cycloheximide (CHX) in MDA-MB-231 cell model following an in-cell-click de novo protein synthesis assay.
Biovision’s EZClick™ protein synthesis monitoring assay kit (EZClick™ Global Protein Synthesis Assay Kit, Catalog # K715-100, Milpitas, CA, USA) was used according to manufacturer’s protocol. The assay was conducted in 8-well chambered coverslips (ibidi GmbH µ-slide # 80826, Martinsried, Germany). Cells were plated at 2 × 10^4 per well and incubated at 37 °C for 12 h. Then, the cells were treated with compounds for 1.5 h and processed and stained according to protocol (representative images shown in Figure 4). Protein synthesis activity is shown in red, DNA staining is shown in green. Cycloheximide (CHX) was used as a positive control and DMSO as the negative control. Images shown were taken with a Marianas CSU-X spinning disk confocal imaging system (3i, Denver, CO, USA) configured with a Zeiss Axio Observer microscope (Carl Zeiss Inc., Thornwood, NY, USA) with diode lasers, at 63× magnification and resolution of 512 × 512 pixels (3i). For each field of view, an image stack consisting of 20 optical sections were taken at 63× magnification. The total intensity of red and green staining was quantified for the entire image stack. Six fields of view were analyzed per condition. Images shown represent a single optical section for each field of view. For each stack, the red intensity (protein synthesis) was adjusted to the green intensity (DNA content) in each image. The numbers from six images were used to calculate the average and standard deviation for each condition. Numbers were normalized to the negative control value arbitrarily set to one. The Slide viewer 6 software package was used for rendering and analysis of the images.

BJ = experiment: CTG viability assay (CellTiter-Glo, 72 h); format: cell-based, human; settings: Homo sapiens, BJ; CellTiter-Glo, 72 h; non-cancerous cells
Experimental: as §1, §2

SUP-B15 [3] = experiment: CTG viability assay (CellTiter-Glo, 72 h); format: cell-based, human; settings: Homo sapiens
Experimental: as §1, §2

SUP-B15 [4] = experiment: Cell cycle analysis (PI DNA content, flow cytometry); format: cell-based, human; settings: SUP-B15, 24 h, 5 µM
Experimental: (§3) The samples were probed with AnnexinV-FITC (Roche/Boehringer Mannheim, Indianapolis, IN, USA) according to the manufacturer’s instructions. KOPN-8 or SUB-P15 cells were plated (1.00 × 10^6 cells/plate) and incubated for 12 h and incubated at 37 °C. Then, cells were treated with compounds or controls for 24 h. Cells were stained with AnnexinV-FITC, PI and the staining profiles were determined with FACScan and Cell-Quest software. For cellular DNA content, the same cell treatment as above was performed. Then, cells were fixed in cold 75% ethanol, treated with RNase and then stained with PI solution (50 µg/mL). Cell cycle distribution was analyzed with the FACSCalibur analyzer (BD Biosciences, Franklin Lakes, NJ, USA) and Cell-Quest software. The percentage of DNA content at different phases of the cell cycle was analyzed with ModFit-software (version 5.0, Verity Software House, Topsham, ME, USA).

KOPN-8 [5] = experiment: as above; format: cell-based, human; settings: KOPN-8, 24 h; silvestrol 5 µM, 8 5 µM, 9 10 µM, 10 5 µM, 12 10 µM, 13 10 µM
Experimental: as §3

SUP-B15 [6] = experiment: Annexin V/PI apoptosis flow cytometry assay; format: cell-based, human; settings: SUP-B15, 24 h; 8 5 µM, 9 10 µM, 10 5 µM, 12 10 µM, 13 10 µM
Experimental: as §3

KOPN-8 [7] = experiment: Annexin V/PI apoptosis flow cytometry assay; format: cell-based, human; settings: KOPN-8, 24 h; 8 5 µM, 9 10 µM, 10 5 µM, 12 10 µM, 13 10 µM
Experimental: as §3

[8] = SUP-B15, mean ± SEM of triplicates

Compound | EC50 (UoC-B1) [µM] | EC50 (PBMC) [µM] | EC50 (KOPN-8 [1]) [µM] | EC50 (NALM-06) [µM] | de novo protein synthesis inhibition [2] | EC50 (BJ) [µM] | EC50 (SUP-B15 [3]; [8]) [µM] | increase in the percentage of cells in S phase (SUP-B15 [4]) | reduction in the percentage of cells in G2/M phase (SUP-B15 [4]) | cell cycle effect (KOPN-8 [5]) | EC50 (SUP-B15 [3]; SUP-B15, 72 h, mean ± SEM of triplicates) [µM] | live cells (Annexin-, PI-) (SUP-B15 [6]) | live cells (Annexin-, PI-) (KOPN-8 [7])
COc1ccc(CC2c3cc(O)c(OC)cc3CCN2C)cc1O (stereo not shown) [Compound 4] | > 23.4 | > 86.8 | 32.1 ± 3.5 | 18.3 ± 2.5 | Partial protein synthesis inhibition | > 46.8 | 38 ± 6.1 |  |  |  |  |  | 
COc1cc2c(cc1O)[C@H]1Cc3ccc(OC)c(O)c3CN1CC2 [Compound 5] | 17.3 ± 3.8 | > 43.3 | 32 ± 7.6 | 8.38 ± 1.8 |  | > 43.3 | 29 ± 3.7 |  |  |  |  |  | 
CCC1CN2CCc3cc(OC)c(OC)cc3C2CC1CC1NCCc2cc(O)c(OC)cc21 (stereo not shown) [Compound 6] | > 21.6 | > 43.3 | 0.16 ± 0.05 | 18.4 ± 3.1 |  | > 43.3 | 9.83 ± 0.5 |  |  |  |  |  | 
COc1ccc2c(c[n+](C)c3c4cc5c(cc4ccc23)OCO5)c1OC [Compound 8, chelerythrine] | 1.96 ± 0.28 | 7.89 | 0.821 ± 0.22 | 1.9 ± 0.2 | no inhibition | 29.8 |  | ~ 20% | ~ 10% | significant cell arrest in G1/G0 | 2.77 ± 0.36 | not viable | not viable
